Laboratory results from US5292733A, “Cephalosporin compounds” (Lucky Limited, priority 1991, dated 1994).
In brackets after ≈: the same amount, converted by molar mass.

How the values were obtained:
Experiment in all cases: Antibacterial activity MIC, two-fold agar dilution
Type in all cases: cell-based
[1] = system: Pseudomonas aeruginosa ATCC 27853; conditions: ATCC27853; Pseudomonas aeruginosa ATCC 27853; Muller-Hinton agar, 37° C., 20 hours; read-out: Antibacterial Activity MIC
Description: (§1) These MIC values were taken by employing a two-fold dilution method: that is, two-fold serial dilutions of each of the test compounds were made and dispersed in a Muller-Hinton agar medium; 2 μl of the standard test strain which had the 10^7 CFU(Colony Forming Unit) per ml was inoculated on the medium; and these were incubated at 37° C. for 20 hours. The results of the MIC tests are shown Table 1.

[2] = system: Enterobacter cloacae ATCC 27508; conditions: ATCC27508; Enterobacter cloacae ATCC 27508; Muller-Hinton agar, 37° C., 20 hours; read-out: Antibacterial Activity MIC
Description: as §1

[3] = system: Bacillus megaterium ATCC 9885; conditions: Priestia megaterium, ATCC9885; Bacillus megaterium ATCC 9885; Muller-Hinton agar, 37° C., 20 hours; read-out: Antibacterial Activity MIC
Description: as §1

[4] = system: Proteus vulgaris ATCC 6059; conditions: ATCC6059; Proteus vulgaris ATCC 6059; Muller-Hinton agar, 37° C., 20 hours; read-out: Antibacterial Activity MIC
Description: as §1

[5] = system: Shigella sonnei ATCC 11060; conditions: ATCC11060, Muller-Hinton agar, 37° C., 20 hours
Description: as §1

[6] = system: Micrococcus luteus ATCC 9341; conditions: ATCC9341; Micrococcus luteus ATCC 9341; Muller-Hinton agar, 37° C., 20 hours; read-out: Antibacterial Activity MIC
Description: as §1

[7] = system: Morganella morganii ATCC 8076h; conditions: ATCC8076H, Muller-Hinton agar, 37° C., 20 hours
Description: as §1

[8] = system: Citrobacter freundii ATCC 8090; conditions: ATCC8090; Citrobacter freundii ATCC 8090; Muller-Hinton agar, 37° C., 20 hours; read-out: Antibacterial Activity MIC
Description: as §1

[9] = system: Serratia marcescens ATCC 27117; conditions: ATCC27117; Serratia marcescens ATCC 27117; Muller-Hinton agar, 37° C., 20 hours; read-out: Antibacterial Activity MIC
Description: as §1

[10] = system: Pseudomonas aeruginosa ATCC 10145; conditions: ATCC10145; Pseudomonas aeruginosa ATCC 10145; Muller-Hinton agar, 37° C., 20 hours; read-out: Antibacterial Activity MIC
Description: as §1

[11] = system: Providencia rettgeri ATCC 9250; conditions: ATCC9250, Muller-Hinton agar, 37° C., 20 hours
Description: as §1

[12] = system: Proteus mirabilis ATCC 25933; conditions: ATCC25933; Proteus mirabilis ATCC 25933; Muller-Hinton agar, 37° C., 20 hours; read-out: Antibacterial Activity MIC
Description: as §1

[13] = system: Klebsiella pneumoniae ATCC 10031; conditions: ATCC10031; Klebsiella pneumoniae ATCC 10031; Muller-Hinton agar, 37° C., 20 hours; read-out: Antibacterial Activity MIC
Description: as §1

[14] = system: Escherichia coli ATCC 10536; conditions: ATCC10536, Muller-Hinton agar, 37° C., 20 hours
Description: as §1

[15] = system: Escherichia coli ATCC 25922; conditions: ATCC25922, Muller-Hinton agar, 37° C., 20 hours
Description: as §1

[16] = system: Salmonella typhimurium ATCC 14028; conditions: Salmonella enterica; Salmonella typhimurium ATCC 14028; Muller-Hinton agar, 37° C., 20 hours; read-out: Antibacterial Activity MIC
Description: as §1

[17] = system: Streptococcus faecalis ATCC 29212; conditions: Enterococcus faecalis, ATCC29212; Streptococcus faecalis ATCC 29212; Muller-Hinton agar, 37° C., 20 hours; read-out: Antibacterial Activity MIC
Description: as §1

[18] = system: Acinetobacter calcoaceticus ATCC 15473; conditions: ATCC15473; Acinetobacter calcoaceticus ATCC 15473; Muller-Hinton agar, 37° C., 20 hours; read-out: Antibacterial Activity MIC
Description: as §1

[19] = system: Bacillus cereus ATCC 11778; conditions: ATCC11778; Bacillus cereus ATCC 11778; Muller-Hinton agar, 37° C., 20 hours; read-out: Antibacterial Activity MIC
Description: as §1

[20] = system: Staphylococcus aureus ATCC 6538p; conditions: ATCC6538P; Staphylococcus aureus ATCC 6538p; Muller-Hinton agar, 37° C., 20 hours; read-out: Antibacterial Activity MIC
Description: as §1

[21] = system: Enterobacter aerogenes ATCC 29751; conditions: Klebsiella aerogenes, ATCC29751; Enterobacter aerogenes ATCC 29751; Muller-Hinton agar, 37° C., 20 hours; read-out: Antibacterial Activity MIC
Description: as §1

[22] = system: Staphylococcus epidermidis ATCC 12228; conditions: ATCC12228; Staphylococcus epidermidis ATCC 12228; Muller-Hinton agar, 37° C., 20 hours; read-out: Antibacterial Activity MIC
Description: as §1

[23] = system: Shigella flexneri ATCC 11836; conditions: ATCC11836, Muller-Hinton agar, 37° C., 20 hours
Description: as §1

[24] = system: Pseudomonas aeruginosa ATCC 25619; conditions: ATCC25619; Pseudomonas aeruginosa ATCC 25619; Muller-Hinton agar, 37° C., 20 hours; read-out: Antibacterial Activity MIC
Description: as §1

[25] = system: Staphylococcus aureus ATCC 10537; conditions: ATCC10537; Staphylococcus aureus ATCC 10537; Muller-Hinton agar, 37° C., 20 hours; read-out: Antibacterial Activity MIC
Description: as §1

Row | SMILES | MIC [1] [µg/mL] | MIC [2] [µg/mL] | MIC [3] [µg/mL] | MIC [4] [µg/mL] | MIC [5] [µg/mL] | MIC [6] [µg/mL] | MIC [7] [µg/mL] | MIC [8] [µg/mL] | MIC [9] [µg/mL] | MIC [10] [µg/mL] | MIC [11] [µg/mL] | MIC [12] [µg/mL] | MIC [13] [µg/mL] | MIC [14] [µg/mL] | MIC [15] [µg/mL] | MIC [16] [µg/mL] | MIC [17] [µg/mL] | MIC [18] [µg/mL] | MIC [19] [µg/mL] | MIC [20] [µg/mL] | further results
1 | CC[n+]1c(N)cc(SCC2=C(C(=O)[O-])N3C(=O)[C@@H](NC(=O)/C(=N\OCC(=O)O)c4csc(N)n4)[C@H]3SC2)nc1N [Compound I-18, (6R,7R)-7-[(Z)-2-(2-aminothiazol-4-yl)-2-(carboxymethoxyimino)acetamido]-3-(2,6-diamino-1-ethyl-pryrimidinium-4-yl)thiomethyl-3-cephem-4-carboxylate] | 2 (≈ 3.28 µM) | 0.016 (≈ 0.0262 µM) | 0.5 (≈ 0.82 µM) | 0.063 (≈ 0.103 µM) | 0.063 (≈ 0.103 µM) | 0.5 (≈ 0.82 µM) | ≤ 0.008 | 0.063 (≈ 0.103 µM) | 0.063 (≈ 0.103 µM) | 4 (≈ 6.56 µM) | ≤ 0.008 | 0.063 (≈ 0.103 µM) | 0.031 (≈ 0.0508 µM) | 0.063 (≈ 0.103 µM) | 0.063 (≈ 0.103 µM) | 0.25 (≈ 0.41 µM) | > 128 | 16 (≈ 26.2 µM) | > 128 | 4 (≈ 6.56 µM) | MIC [21]: 2 µg/mL (≈ 3.28 µM); MIC [22]: 2 µg/mL (≈ 3.28 µM); MIC [23]: 0.016 µg/mL (≈ 0.0262 µM); MIC [24]: 1 µg/mL (≈ 1.64 µM); MIC [25]: 4 µg/mL (≈ 6.56 µM)
2 | CC[n+]1c(N)cc(SCC2=C(C(=O)[O-])N3C(=O)[C@@H](NC(=O)/C(=N\OC)c4csc(N)n4)[C@H]3SC2)nc1N [Compound I-22, (6R,7)-7-[(Z)-2-(2-aminothiazol-4-yl)-2-(methoxyimino)acetamido]-3-(2,6-diamino-1-ethylpyrimidinium-4-yl)thiomethyl-3-cephem-4-carboxylate] | 2 (≈ 3.54 µM) | ≤ 0.008 | 0.25 (≈ 0.442 µM) | 0.25 (≈ 0.442 µM) | 0.031 (≈ 0.0548 µM) | 0.031 (≈ 0.0548 µM) | ≤ 0.008 | 0.25 (≈ 0.442 µM) | 0.25 (≈ 0.442 µM) | 8 (≈ 14.1 µM) | ≤ 0.008 | 0.25 (≈ 0.442 µM) | ≤ 0.008 | 0.063 (≈ 0.111 µM) | 0.063 (≈ 0.111 µM) | 0.13 (≈ 0.23 µM) | 8 (≈ 14.1 µM) | 8 (≈ 14.1 µM) | 64 (≈ 113 µM) | 0.25 (≈ 0.442 µM) | MIC [21]: 0.25 µg/mL (≈ 0.442 µM); MIC [22]: 0.25 µg/mL (≈ 0.442 µM); MIC [23]: 0.063 µg/mL (≈ 0.111 µM); MIC [24]: 1 µg/mL (≈ 1.77 µM); MIC [25]: 0.5 µg/mL (≈ 0.884 µM)
3 | C#CCO/N=C(\C(=O)N[C@@H]1C(=O)N2C(C(=O)[O-])=C(CSc3cc(N)[n+](CC)c(N)n3)CS[C@H]12)c1csc(N)n1 [Compound I-15, (6R,7R)-7-[(Z)-2-(2-aminothiazol-4-yl)-2-(2-propyn-1-oxyimino)acetamido]-3-(2,6-diamino-1-ethylpyrimidinium-4-yl)thiomethyl-3-cephem-4-carboxylate] | 4 (≈ 6.78 µM) | 0.031 (≈ 0.0526 µM) | 0.25 (≈ 0.424 µM) | 1 (≈ 1.7 µM) | 0.5 (≈ 0.848 µM) | 0.031 (≈ 0.0526 µM) | 0.016 (≈ 0.0271 µM) | 0.25 (≈ 0.424 µM) | 0.5 (≈ 0.848 µM) | 8 (≈ 13.6 µM) | ≤ 0.008 | 0.5 (≈ 0.848 µM) | 0.016 (≈ 0.0271 µM) | 0.25 (≈ 0.424 µM) | 0.5 (≈ 0.848 µM) | 0.5 (≈ 0.848 µM) | 16 (≈ 27.1 µM) | 8 (≈ 13.6 µM) | 32 (≈ 54.3 µM) | 0.5 (≈ 0.848 µM) | MIC [21]: 1 µg/mL (≈ 1.7 µM); MIC [22]: 0.25 µg/mL (≈ 0.424 µM); MIC [23]: 0.13 µg/mL (≈ 0.22 µM); MIC [24]: 1 µg/mL (≈ 1.7 µM); MIC [25]: 0.5 µg/mL (≈ 0.848 µM)
4 | CC(O/N=C(\C(=O)N[C@@H]1C(=O)N2C(C(=O)[O-])=C(CSc3cc(N)[n+](C)c(N)n3)CS[C@H]12)c1csc(N)n1)C(=O)O (stereo partly drawn) [Compound I-19, (6R,7R)-7-[(Z)-2-(2-aminothiazol-4-yl)-2-(R,S-carboxyeth-1-oxyimino)acetamido]-3-(2,6-diamino-1-methylpyrimidinium-4-yl)thiomethyl-3-cephem-4-carboxylate] | 2 (≈ 3.28 µM) | 0.031 (≈ 0.0508 µM) | 0.25 (≈ 0.41 µM) | 0.25 (≈ 0.41 µM) | 0.25 (≈ 0.41 µM) | 0.5 (≈ 0.82 µM) | ≤ 0.008 | 0.13 (≈ 0.213 µM) | 0.25 (≈ 0.41 µM) | 4 (≈ 6.56 µM) | ≤ 0.008 | 0.13 (≈ 0.213 µM) | 0.063 (≈ 0.103 µM) | 0.13 (≈ 0.213 µM) | 0.13 (≈ 0.213 µM) | 0.25 (≈ 0.41 µM) | 128 (≈ 210 µM) | 8 (≈ 13.1 µM) | 128 (≈ 210 µM) | 4 (≈ 6.56 µM) | MIC [21]: 1 µg/mL (≈ 1.64 µM); MIC [22]: 4 µg/mL (≈ 6.56 µM); MIC [23]: 0.016 µg/mL (≈ 0.0262 µM); MIC [24]: 1 µg/mL (≈ 1.64 µM); MIC [25]: 4 µg/mL (≈ 6.56 µM)
